Source: patent US8097654B2, “Radiolabeled 3-[3-(benzoyl-amido)benzyloxy]aspartic acid derivative and method of producing the same” (Suntory Holdings Limited, priority 2004, dated 2012)

Molecular target: EAAT2 (Homo sapiens, UniProt P43004)
Test: Inhibition of [14C]-glutamic acid uptake by EAAT2 expressed in MDCK or COS-1 cells
Assay type: cell-based
Design: expressed in transfected cells
Conditions: glutamate transporter, subtype not given
Procedure: In accordance with a known method (Shimamoto, K. et al., Mol. Pharmacol. 53, 195-201, 1998; Bioorg. Med. Chem. Lett. 10, 2407-2410, 2000), the inhibitory activity was assayed as the ability to inhibit the uptake of [^14C]-glutamic acid by human EAAT2 and EAAT3 stably expressed in MDCK (Madin-Darby canine kidney) cells or transiently expressed in COS-1 cells. The glutamate uptake activity was assayed by incubating a mixture of 1 μM of L-[^14C]-glutamic acid with a sample compound at a predetermined concentration for 12 minutes, lysing the cells and then measuring the radioactivity incorporated into the cells with a liquid scintillator. The amount of uptake was expressed in percentage by referring the amount of uptake in the absence of a test compound (i.e., the buffer alone) as 100% and referring the amount of uptake in a sodium-free solution as 0%.

Sequence of EAAT2 (P43004 whole entry): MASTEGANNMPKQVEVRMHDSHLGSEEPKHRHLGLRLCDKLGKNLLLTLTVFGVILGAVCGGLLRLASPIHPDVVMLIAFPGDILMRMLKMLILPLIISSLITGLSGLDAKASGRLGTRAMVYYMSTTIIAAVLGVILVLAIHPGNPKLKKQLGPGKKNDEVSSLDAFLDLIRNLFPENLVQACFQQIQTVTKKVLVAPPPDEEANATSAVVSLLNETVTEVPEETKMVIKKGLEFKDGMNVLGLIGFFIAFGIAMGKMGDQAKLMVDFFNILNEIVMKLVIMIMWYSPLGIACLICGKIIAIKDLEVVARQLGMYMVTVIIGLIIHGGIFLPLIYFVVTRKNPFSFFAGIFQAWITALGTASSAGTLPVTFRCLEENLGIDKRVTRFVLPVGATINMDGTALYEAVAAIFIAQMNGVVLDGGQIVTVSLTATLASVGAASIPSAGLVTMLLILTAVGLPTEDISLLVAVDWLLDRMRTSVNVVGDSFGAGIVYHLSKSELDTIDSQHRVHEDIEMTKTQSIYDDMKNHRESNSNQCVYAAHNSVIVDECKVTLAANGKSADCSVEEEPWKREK

IC50 for glutamate transporter (in words): several ten nM order
SMILES: N[C@H](C(=O)O)[C@H](OCc1cccc(NC(=O)c2ccc(F)cc2)c1)C(=O)O [F-BzA-TBOA]
